Results on 1 molecule are retold here after patent US9394570B2, “Marker for colon cancer and method for detecting colon cancer” (The Chinese University of Hong Kong, priority 2010, dated 2016).

Entries after “also recorded” stand apart in the source; their conditions may differ.

In this assay the test system is TBX5 expression in methylated colon cancer cell lines. The experiment in a line: Demethylation with 5-Aza, TBX5 mRNA expression by RT-PCR. The class given is cell-based, human. The note with it: 2 μM 5-Aza for 5 days; 4 methylated cell lines with silenced or downregulated TBX5. As to the method: Total RNA was extracted from cell pellets and tissues using TRIzol Reagent according to the manufacturer's instruction (Molecular Research Center, Inc., Cincinnati, Ohio). cDNA was synthesized from 2 μg total RNA using Transcriptor Reverse Transcriptase (Roche Applied Sciences, Indianapolis, Ind.). For semi-quantitative RT-PCR, a 151 bp fragment of the TBX5 gene was amplified for 36 cycles using AmpliTaq Gold DNA polymerase (Applied Biosystems, Foster City, Calif.) as previously reported (Yu et al, Gastro), with β-actin as internal control. The primer sequences of TBX5 are: forward 5′-[…]-3′ (SEQ ID NO:2) and reverse 5′-[…]-3′ (SEQ ID NO:3). Real-time PCR was performed using SYBR Green master mixture on HT7900 system according to the manufactures' instructions (Applied Biosystems).
Cells were seeded at a density of 1×10^6 cells/mL. After 24 hours, cells were treated with 2 μM of the DNA demethylating agent 5-Aza (Sigma-Aldrich, St Louis, Mo.) for 5 days. 5-Aza was replenished every day. Controlled cells were treated with an equivalent concentration of vehicle (DMSO). Cells were then harvested for DNA and RNA extractions.

As to `Nc1ncn([C@H]2C[C@H](O)[C@@H](CO)O2)c(=O)n1` [5-Aza, 5-Aza-2′-deoxycytidine], the “TBX5 mRNA expression after demethylation treatment” value is “restoration of TBX5 expression in all cell lines examined; also recorded: restored”.
